Here are results for one molecule from patent publication US8338426B2, “Piperazinyl derivatives useful as modulators of the neuropeptide Y2 receptor” (Janssen Pharmaceutica NV, priority 2007, dated 2012).

The target of one assay is T1, rat Y2 receptor (Rattus norvegicus, UniProt Q9ERC0).
T1 construct: membranes from rat or mouse hippocampus were prepared; from tissue; host or cells: rat hippocampus membranes
T1 sequence (Q9ERC0 1-381): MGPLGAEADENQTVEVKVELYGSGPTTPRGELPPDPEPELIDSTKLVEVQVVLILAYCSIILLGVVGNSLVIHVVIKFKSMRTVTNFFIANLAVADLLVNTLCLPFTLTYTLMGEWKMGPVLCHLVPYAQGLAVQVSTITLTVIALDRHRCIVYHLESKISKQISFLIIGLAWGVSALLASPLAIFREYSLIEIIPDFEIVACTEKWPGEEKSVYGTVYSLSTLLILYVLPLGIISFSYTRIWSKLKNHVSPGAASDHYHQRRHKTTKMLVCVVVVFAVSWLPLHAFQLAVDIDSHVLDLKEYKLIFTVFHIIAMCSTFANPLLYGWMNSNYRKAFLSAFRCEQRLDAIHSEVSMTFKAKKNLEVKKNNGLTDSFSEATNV
Briefly: Neuropeptide Y2 radioligand binding assay, [125I]PYY, rat hippocampus membranes. To be noted: read-out: rY2 pKi (converted). The method, then: Radioligand binding assays for the human and rat/mouse Y2 receptor were performed as described in Bonaventure, P., D. Nepomuceno, C. Mazur, B. Lord, D. A. Rudolph, J. A. Jablonowski, N. I. Carruthers and T. W. Lovenberg, J Pharmacol Exp Ther. 2004, 308, 1130.
KAN-Ts endogenously expressing Y2 receptors were used, for the rat and mouse Y2 receptor, membranes from rat or mouse hippocampus were prepared. Membranes were incubated with [^125I]PYY (80 pM) in the presence or absence of test compound for 1 h at rt. The reaction was stopped by filtration through GF/C filter plates pre-soaked in 0.3% polyethylenimine and subsequently washed with Tris-HCl, 50 mM, 5 mM EDTA buffer. Plates were dried for 1 h in a 55° C. oven, scintillation fluid was added and the radioactivity was counted in a Packard TopCount. Specific binding to the NPY receptor subtypes was determined by radioactivity that was bound in the presence of 1 μM NPY.
Apparent Ki values were calculated as K=IC50/(1+C/KD), where C is concentration of the radioligand and pKi=−log Ki. Data presented below are expressed as mean±S.E.M.

A further assay concerns the target T2, Y5 receptor subtype (Homo sapiens, UniProt Q15761).
T2 construct: expressed in transfected cells; host or cells: HEK-293 cells
T2 sequence (Q15761 1-445): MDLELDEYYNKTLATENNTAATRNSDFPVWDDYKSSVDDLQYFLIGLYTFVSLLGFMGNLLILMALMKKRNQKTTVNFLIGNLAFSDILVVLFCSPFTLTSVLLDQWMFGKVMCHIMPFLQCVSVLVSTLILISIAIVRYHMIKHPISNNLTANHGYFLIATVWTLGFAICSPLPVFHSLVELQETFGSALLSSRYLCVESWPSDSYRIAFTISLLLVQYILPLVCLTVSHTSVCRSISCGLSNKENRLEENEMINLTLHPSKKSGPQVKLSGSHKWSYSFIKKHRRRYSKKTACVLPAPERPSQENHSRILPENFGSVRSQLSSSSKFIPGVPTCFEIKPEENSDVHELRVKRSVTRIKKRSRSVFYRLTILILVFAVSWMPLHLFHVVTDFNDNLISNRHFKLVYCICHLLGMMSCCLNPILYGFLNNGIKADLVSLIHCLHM
As to the kind of experiment: [125I]PYY binding in HEK-293 cells expressing the Y5 receptor subtype. The conditions noted are these: concentrations up to 10; HEK-293 cells expressing Y5. As for the experimental part:
(§1) The selectivity of the compound of formula (A) was further evaluated in a large variety of ion-channels, transporters and receptor-binding assays including the Y1 receptor subtype. These assays were performed by CEREP (Celles L'Evescault, France; www.cere.com<http//www.cerea.com>). Selectivity vs the Y5 receptor subtype was evaluated as described in Bonaventure, P., D. Nepomuceno, C. Mazur, B. Lord, D. A. Rudolph, J. A. Jablonowski, N. I. Carruthers and T. W. Lovenberg, J Pharmacol Exp Ther. 2004, 308, 1130.

For a further assay, the target named is T3, NPY Y1 receptor (Homo sapiens, UniProt P25929).
T3 construct: CEREP
T3 sequence (P25929 1-384): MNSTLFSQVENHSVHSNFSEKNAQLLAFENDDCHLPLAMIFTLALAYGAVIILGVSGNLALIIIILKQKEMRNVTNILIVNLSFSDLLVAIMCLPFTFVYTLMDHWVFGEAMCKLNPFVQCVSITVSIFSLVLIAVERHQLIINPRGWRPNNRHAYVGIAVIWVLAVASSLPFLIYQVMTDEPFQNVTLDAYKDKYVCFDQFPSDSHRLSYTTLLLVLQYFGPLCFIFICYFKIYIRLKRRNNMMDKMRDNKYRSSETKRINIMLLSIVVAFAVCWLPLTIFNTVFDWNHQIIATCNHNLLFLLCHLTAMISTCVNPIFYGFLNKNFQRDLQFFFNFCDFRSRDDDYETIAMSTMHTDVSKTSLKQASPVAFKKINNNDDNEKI
Briefly: CEREP binding panel, NPY Y1. As for the experimental part: as §1
(§2) The compound of formula (A) was assayed by binding in a panel of 50 receptors, ion channels and transporters assays (CEREP) including adenosine (A1,A2A,A3), adrenergic (α1, α2, β1), angiotensin (AT1), dopamine (D1, D2), bradykinin (B2), cholecystokinin (CCKA), galanin (GAL2), melatonin ML1), muscarinic (M1, M2, M3), neurotensin (NTS), neurokinin (NK2, NK3), NPY (Y1, Y2) opiate (m, k, d), serotonin (5-HT1A, 5-HT1B, 5-HT2A, 5-HT3, 5-HT5A, 5-HT6, 5-HT7), somatostatin, vasopressin (V1a), norepinephrine transporter, dopamine transporter and ion channels (sodium, calcium, potassium and chloride).

Assay [1] deals with panel of 50 receptors, ion channels and transporters. Briefly: CEREP panel of 50 receptors, ion channels and transporters. In kind it is binding. The conditions noted are these: concentrations up to 1 μM. The method, then: as §1, §2
The subject of assay [2] is ethanol-induced hyperactivity. Briefly: Ethanol-induced hyperactivity (locomotor activity) in c57bl6/j mice. The conditions noted are these: 10 mg/kg i.p. The assay is classed as in vivo. The source says:
C57bl6/j mice readily self-administer ethanol and these mice are sensitive to the stimulant effects of alcohol. NPY immunoreactivity is reduced in these mice. In addition, mice lacking NPY drink more ethanol than wild type mice; whereas, mice over-expressing NPY have reduced preference for ethanol. Experiments were designed to test the hypothesis that selective blockade of Y2 receptors by the compound of formula (A) decreases ethanol stimulant effects presumable by enhancing NPY function in the brain.
Locomotor activity was measured with a Hamilton Kinder motor monitor infrared beam apparatus equipped with a SmartFrame cage rack throughout which basic movements were recorded. Experiments assessed the effects of the compound of formula (A) on ethanol-induced hyperactivity in 8-10-week old c57bl6/j mice and were conducted using a between subject design. Vehicle (10 ml/kg, i.p.) or the compound of formula (A) (10 mg/kg, i.p.) was administered 15 min prior to the beginning of the session. Thereafter, animals received an acute injection of either vehicle (10 ml/kg, i.p.) or ethanol (1 g/kg, i.p), then they were immediately placed in the apparatus and locomotor activity was evaluated for 15 min. Data were analyzed with two-way repeated ANOVA using Graph Pad.

Broadly, the inhibition is the change of the read-out against control, counted positive when it falls. Higher therefore signals a response far below the control. On to `CCN(CC)C(=O)C(c1ccccc1)N1CCN(c2ccc(NC(=O)c3ccccc3-c3cccnc3)cc2F)CC1` (racemic) [Cmpd (A), N-{4-[4-(Diethylcarbamoyl-phenyl-methyl)-piperazin-1-yl]-3-fluoro-phenyl}-2-pyridin-3-yl-benzamide], for which, at rat Y2 receptor, the Ki was 4.57 nM. Besides, the “competition for specific [125I]PYY receptor binding sites, Y5” value on Y5 receptor subtype is “failed to compete for significant amounts”. Besides, the inhibition at 1 µM on NPY Y1 receptor came to 10%. Also, the “inhibition against each receptor of the panel (except NPY Y2)” value in assay [1] is listed as “less than 50%”. In assay [2] (15 min before ethanol 1 g/kg i.p.), the “effect on ethanol-induced hyperactivity” value is listed as “significantly reduced ethanol hyperactivity”. Further, in assay [2] (no ethanol), the “effect on locomotor activity by itself” value is recorded as “did not change locomotor activity by itself”.
